{"source": "patent US20230111180A1", "about": "“HYDROGEN CONTAINING COMPOSITION AND METHODS OF USING THE SAME” (MiZ Company Limited, priority 2017, published 2023)", "key": {"[1]": {"tested_on": "PTSD caused by abuse in early childhood", "conditions": "for Total score (PCL-5): 7% hydrogen gas inhaled, before inhalation score 66", "description": "(§1) Adult women who had lived for 10 years or longer after the onset of PTSD caused by abuse in early childhood were subjected to inhalation of hydrogen gas with a concentration of 7% by using a hydrogen generator (MHG-2000α, produced by MiZ Company Limited) for at least 1 hour (up to 4 hours) per day over 7 weeks. Each of the subjects had been regularly using an analgesic prescribed by a physician to treat pain, and continued the regular use also during the period of inhalation.\nSymptoms of PTSD were quantified through interviews by a physician with the PTSD Checklist for DSM-5 (PCL-5; published by the National Center for PTSD)."}, "[2]": {"tested_on": "PTSD due to an intense psychological shock received in military operations", "conditions": "for Total score: 7% hydrogen gas inhaled, before inhalation score 49", "description": "as §1, with “had experienced” for “had lived for 10 years or longer after”, “PTSD due to an intense psychological shock received” for “PTSD caused by abuse”, “in military operations” for “in early childhood”, “least 2 hours” for “least 1 hour”, “over 3” for “over 7”\n(§2) Symptoms of PTSD were quantified through interviews by a physician."}, "[3]": {"tested_on": "PTSD due to physical abuse in early childhood and later stages", "conditions": "7% hydrogen gas inhaled, before inhalation score 61", "description": "Adult women who had experienced the onset of PTSD due to an intense psychological shock received through physical abuse in early childhood and later stages were subjected to inhalation of hydrogen gas with a concentration of 7% by using a hydrogen generator (MHG-2000α, produced by MiZ Company Limited) for 1 to 3 hours per day over 3 weeks. Each of the subjects had been regularly using an analgesic prescribed by a physician to treat pain, and continued the regular use also during the period of inhalation.\nas §2"}, "[4]": {"tested_on": "ROS formation in the brains", "conditions": "6 days after blast exposure; 4% hydrogen gas 6 hours per day", "description": "(§3) All animal experiments relating to the present invention were conducted according to the institutional ethical guidelines for animal experiments of the National Defense Medical College and these animal experiments were approved by the Committee for Animal Research at the National Defense Medical College. Inbred C57BL/6 mice were used in this experiment. Age-matched male littermate mice were used in all experiments. The mice were housed in a breeding room with a 12-h light/dark cycle and a room temperature maintained at 24±1° C. The mice had ad libitum access to water and food.\n(§4) The mice at 10 weeks of age were anesthetized by intraperitoneal administration of mixed anesthetic agents containing medetomidine hydrochloride (0.3 mg/kg, Domitol, Meiji Seika Pharma Co., Ltd.), midazolam (4.0 mg/kg, Dormice, Astellas Pharma Inc.), and butorphanol (5.0 mg/kg, Vetorphale, Meiji Seika Pharma Co., Ltd.). […] Following blast exposure, mice were allowed to recover from anesthesia and were subsequently returned to their home cage.\n(§5) Mice were placed in a humid chamber for hydrogen gas inhalation for 6 hours per day. Hydrogen gas diluted by air (4%) was supplied to the chamber from a hydrogen gas supply apparatus (MiZ Company Limited) at a feeding rate of 2 L/min. The mice had ad libitum access to water and food in the chamber."}, "[5]": {"tested_on": "mice exposed to blast (bmTBI)", "description": "as §3, §4, §5\nBehavioral analysis was performed 7 days after the blast exposure. All mice used in the behavioral analysis were age-matched male littermates. The behavior of each mouse was monitored and analyzed using a computer-operated video tracking system (SMART, Panlab, Barcelona, Spain), unless otherwise stated. In tests using an apparatus with arms, arm entry was counted when all four legs of a mouse entered each arm. The apparatus was washed after each test. Behavioral studies were performed for mice at 11 to 12 weeks of age."}, "[6]": {"tested_on": "mice exposed to blast (bmTBI)", "description": "as §3, with “food. […]” for “food.”\nBehavioral analysis was performed 7 days after the blast exposure. […] The behavior of each mouse was monitored and analyzed using a computer-operated video tracking system (SMART, Panlab, Barcelona, Spain), unless otherwise stated. In tests using an apparatus with arms, arm entry was counted when all four legs of a mouse entered each arm. […]\nA sociability test was performed by using a conventional method. Interaction time with another living mouse versus a stuffed mouse was measured in an open field using two cylinder cages allowing olfactory and minimal tactile feelings. […]", "remark": "listed apart in the source"}, "[7]": {"conditions": "at clinical concentrations, previous studies; cited from earlier work"}, "[8]": {"conditions": "7 days after blast, 4% hydrogen gas 6 hours per day for 7 days, one-way ANOVA p>0.05"}}, "note": "Read-outs that look alike come from different tables or passages of the source."}
{"compound": "[HH]", "note": "[hydrogen gas]", "values": [{"measurement": "Symptoms of PTSD after the initiation of inhalation", "setting": "[1]; 7% hydrogen gas, 1 to 4 hours per day over 7 weeks", "result": "tended to ameliorate"}, {"measurement": "Total score (PCL-5)", "setting": "[1]; Week 1, average 2.2 H/day", "result": 55}, {"measurement": "Total score (PCL-5)", "setting": "[1]; Week 2, average 3.8 H/day", "result": 41}, {"measurement": "Total score (PCL-5)", "setting": "[1]; Week 4, average 2.8 H/day", "result": 41}, {"measurement": "Total score (PCL-5)", "setting": "[1]; Week 7, average 1.1 H/day", "result": 27}, {"measurement": "Symptoms of PTSD after the initiation of inhalation", "setting": "[2]; 7% hydrogen gas, 2 to 4 hours per day over 3 weeks", "result": "tended to ameliorate"}, {"measurement": "Total score", "setting": "[2]; Week 2, average 4 H/day", "result": 16}, {"measurement": "Total score", "setting": "[2]; Week 3, average 2 H/day", "result": 12}, {"measurement": "Total score", "setting": "[3]; Week 1, average 3 H/day", "result": 62}, {"measurement": "Total score", "setting": "[3]; Week 2, average 2 H/day", "result": 60}, {"measurement": "Total score", "setting": "[3]; Week 4, average 1 H/day", "result": 49}, {"measurement": "Total score", "setting": "[3]; Week 7, average 2 H/day", "result": 53}, {"measurement": "Total score", "setting": "[3]; Week 10, average 2.15 H/day", "result": 50}, {"measurement": "ROS in the brains (ethidium fluorescence) versus blast exposure alone", "setting": "[4]", "result": "significantly reduced"}, {"measurement": "Activity, total distance traveled in 10 minutes, versus sham", "setting": "[5]; [8]", "result": "did not show abnormal activity"}, {"measurement": "Percentage of time spent in the open arms, comparison of Sham, bmTBI, bmTBI+H2", "setting": "[5]; [8]", "result": "did not differ significantly"}, {"measurement": "Gross motor function, latency on accelerating rotarod", "setting": "[5]; 7 days after blast, 4% hydrogen gas 6 hours per day for 7 days, two-way ANOVA p>0.05", "result": "gross motor function was intact"}, {"measurement": "Total immobility time during the 6-minute trial", "setting": "[5]; bmTBI+H2 group versus control, bmTBI increased, one-way ANOVA F=6.94, p=0.0036", "result": "comparable immobility time to control mice (Sham)"}, {"measurement": "Latency to the first bout of immobility", "setting": "[5]; bmTBI+H2 group versus control, one-way ANOVA F=6.42, p=0.0051", "result": "latencies comparable to the control (Sham) group"}, {"measurement": "Correct choices (spatial working memory)", "setting": "[5]; bmTBI+H2 group, Sham 62.6±1.8%, bmTBI 62.3±3.4%, mean±standard error, p>0.05", "result": "60.4±3.4", "unit": "%"}, {"measurement": "Depression-like behaviors induced by blast exposure", "setting": "[5]; conclusion from tail suspension and forced swim tests", "result": "suppresses depression-like behaviors induced by blast exposure"}, {"measurement": "Duration of interaction with an inanimate novel object, difference between groups", "setting": "[5]; one-way ANOVA p>0.05", "result": "no difference"}, {"measurement": "Time required to find the buried food, difference between groups", "setting": "[5]; one-way ANOVA p>0.05", "result": "no difference was found in the olfactory test"}, {"measurement": "Abnormal social behaviors induced by blast", "setting": "[6]; conclusion from sociability, olfactory and novelty tests", "result": "suppressed the abnormal social behaviors induced by blast"}, {"measurement": "Difference between interaction time with living mouse and with stuffed mouse", "setting": "[6]; within bmTBI+H2 group, t-test p>0.05", "result": "no significant difference"}, {"measurement": "Side effects of hydrogen", "setting": "[7]", "result": "no serious side effect"}]}
